Columns and labels:
human SGLT-1 = target: T1, human SGLT-1 (Homo sapiens, UniProt P13866); assay: Inhibitory activity against SGLT-1, [14C]-AMG uptake in CHO cells; assay type: cell-based; conditions: CHO cells expressing human SGLT-1, [14C]-AMG
T1 construct: expressed in transfected cells; host or cells: CHO cells (Flp-in CHO)
T1 sequence (P13866 1-664): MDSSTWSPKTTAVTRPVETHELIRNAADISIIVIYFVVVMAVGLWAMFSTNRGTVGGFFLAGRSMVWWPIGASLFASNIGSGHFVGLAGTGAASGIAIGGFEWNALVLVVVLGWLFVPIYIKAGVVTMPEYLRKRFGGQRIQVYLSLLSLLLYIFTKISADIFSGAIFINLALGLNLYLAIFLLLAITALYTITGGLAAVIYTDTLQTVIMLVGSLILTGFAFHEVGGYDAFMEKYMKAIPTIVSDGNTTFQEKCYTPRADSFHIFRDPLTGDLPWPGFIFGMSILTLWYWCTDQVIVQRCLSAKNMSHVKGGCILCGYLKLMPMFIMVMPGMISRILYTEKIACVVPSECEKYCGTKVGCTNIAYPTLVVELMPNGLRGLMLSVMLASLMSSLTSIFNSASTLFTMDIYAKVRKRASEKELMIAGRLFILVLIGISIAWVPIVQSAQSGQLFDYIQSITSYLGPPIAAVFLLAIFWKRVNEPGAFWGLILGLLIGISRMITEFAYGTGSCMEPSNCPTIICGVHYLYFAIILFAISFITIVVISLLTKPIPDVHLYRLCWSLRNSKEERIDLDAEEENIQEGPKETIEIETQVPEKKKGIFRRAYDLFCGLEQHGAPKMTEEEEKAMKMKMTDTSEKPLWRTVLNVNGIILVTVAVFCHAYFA
Experimental: (§1) The following method was used for detecting inhibitory activity of the compounds of the invention against SGLT-1 and SGLT-2.
(§2) 3×10^4 of FIP-in CHO cells transfected Mock and CHO cells expressing human SGLT-1/SGLT-2 gene were seeded into a 96-well cell culture plate; the cells were incubated for 12 hours, and then to each well was added 150 μL of Na-free buffer to wash the cells once; and then to each well were added 50 μL of Na buffer containing the compound at different concentrations and 0.5 μM [^14C]-AMG, and the plate was incubated in a incubator at 37° C. for 1 hour, the reaction was terminated by adding 150 μL of pre-cooled Na-free buffer; the cells were further washed with Na-free buffer 3 times and the residual liquid was removed; to each well was added 20 μL of pre-cooled NaOH ([…]), the plate was vibrated at 900 rpm for 5 min; and then to each well was added 80 μL of scintillation solution, the plate was vibrated at 600 rpm for 5 min; the plate was analyzed on liquid scintillation counter.

[1] = Measurement of solubility (Chinese Pharmacopoeia 2010 method); assay type: physicochemical
Source text: Judgement standard of solubility are shown as table A.

[2] = Measurement of hygroscopicity (Chinese Pharmacopoeia 2010, part II, appendix XIXJ); assay type: physicochemical; conditions: 25° C.±1° C., constant humidity (ammonium chloride or ammonium sulfate saturated solution), 24 h
Experimental: Test method: According to the method regulated by Chinese pharmacopoeia 2010, part II, appendix XIXJ, a dry glass weighing bottle with a stopper (outside diameter is 50 mm, high is 15 mm) was placed in a thermostatic drier (an ammonium chloride or ammonium sulfate saturated solution was placed in the bottom) at 25° C.±1° C. before one day of experiment, the empty glass weighing bottle with a stopper was weighed accurately by using METTLERTOLEDO XP205DR analytical balance, and recorded as m1. An appropriate amount of the Complex (IA) sample (prepared from example 2) was tiled on the above weighing bottle at a thickness of 1 mm, which was weighed accurately and recorded as m2. Opening the bottle, the bottle was placed under the above constant temperature and humidity condition for 24 h […]. Closing the bottle with the stopper, the bottle was weighed accurately, and recorded as m3, the weight gain percentage (%) was calculated.
The judgement of the results hygroscopicity was shown as table C.

human SGLT-2 = target: T2, human SGLT-2 (Homo sapiens, UniProt P31639); assay: Inhibitory activity against SGLT-2, [14C]-AMG uptake in CHO cells; assay type: cell-based
T2 construct: expressed in transfected cells; host or cells: CHO cells (Flp-in CHO)
T2 sequence (P31639 1-672): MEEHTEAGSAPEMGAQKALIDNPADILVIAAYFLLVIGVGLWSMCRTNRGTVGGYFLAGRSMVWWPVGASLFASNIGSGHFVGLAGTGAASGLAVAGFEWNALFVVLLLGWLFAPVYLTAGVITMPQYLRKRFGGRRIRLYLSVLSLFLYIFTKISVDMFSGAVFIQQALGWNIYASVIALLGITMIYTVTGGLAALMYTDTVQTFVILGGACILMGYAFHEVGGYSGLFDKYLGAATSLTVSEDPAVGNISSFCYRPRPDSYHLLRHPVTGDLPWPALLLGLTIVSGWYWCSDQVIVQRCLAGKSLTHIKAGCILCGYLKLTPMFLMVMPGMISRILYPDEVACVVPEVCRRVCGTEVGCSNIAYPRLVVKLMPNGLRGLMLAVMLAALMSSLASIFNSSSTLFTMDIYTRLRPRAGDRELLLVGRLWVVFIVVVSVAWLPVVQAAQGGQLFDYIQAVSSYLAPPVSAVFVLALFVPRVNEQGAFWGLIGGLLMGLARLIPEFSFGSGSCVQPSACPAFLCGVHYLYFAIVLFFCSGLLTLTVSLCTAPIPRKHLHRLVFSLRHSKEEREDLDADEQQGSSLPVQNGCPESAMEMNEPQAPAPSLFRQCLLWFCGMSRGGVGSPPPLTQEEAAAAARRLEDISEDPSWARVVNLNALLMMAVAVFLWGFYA
Experimental: as §1, §2

[3] = solvent DMA, sampling weight 100.02, solvent volume 0.095 mL
[4] = solvent DMSO, sampling weight 100.16, solvent volume 0.095 mL
[5] = solvent acetonitrile, sampling weight 100.20, solvent volume 2.90 mL
[6] = solvent ethanol, sampling weight 100.10, solvent volume 2.90 mL
[7] = solvent methanol, sampling weight 100.23, solvent volume 0.095 mL

solubility (summary in words) ([1]; in acetonitrile, methanol, ethanol, DMSO and DMA): good solubility
yes/no dissolved [1, 3]: yes
yes/no dissolved [1, 4]: yes
yes/no dissolved [1, 5]: yes
yes/no dissolved [1, 6]: yes
yes/no dissolved [1, 7]: yes
yes/no dissolved ([1]; solvent water, sampling weight 10.33, solvent volume 102 mL): no
weight gain percentage [2]: 0.27%
SMILES: CCOc1ccc(Cc2cc([C@]34OC[C@]([C@@H](C)O)(O3)[C@@H](O)[C@H](O)[C@H]4O)ccc2Cl)cc1 [Complex (IA), Complex (IA) of (1R,2S,3S,4R,5S)-5-(4-chloro-3-(4-ethoxybenzyl)phenyl)-1-((1R)-1-hydroxyethyl)-6,8-dioxabicyclo[3.2.1]octane-2,3,4-triol (I-n) and L-pyroglutamic acid]
SGLT-1 inhibitory activity (human SGLT-1): has SGLT-2 and SGLT-1 inhibitory activity
solubility results [1, 3]: Very soluble (1 g (mL) of solute can be dissolved completely in a <1 mL of solvent)
solubility results [1, 4]: Very soluble (1 g (mL) of solute can be dissolved completely in a <1 mL of solvent)
solubility results [1, 5]: Soluble (1 g (mL) of solute can be dissolved completely in a 10 to <30 mL of solvent)
solubility results [1, 6]: Soluble (1 g (mL) of solute can be dissolved completely in a 10 to <30 mL of solvent)
solubility results [1, 7]: Very soluble (1 g (mL) of solute can be dissolved completely in a <1 mL of solvent)
SGLT-2 inhibitory activity (human SGLT-2; CHO cells expressing human SGLT-2, [14C]-AMG): has SGLT-2 and SGLT-1 inhibitory activity
inhibitory activity to SGLT-2 compared with SGLT-1 (human SGLT-2; SGLT-2 versus SGLT-1): the inhibitory activity to SGLT-2 is much more stronger than that to SGLT-1

Source: patent US10555930B2, “Complex of a glucopyranosyl derivative and preparation method and use thereof” (SUNSHINE LAKE PHARMA CO., LTD., priority 2015, dated 2020)
